Data from publication PMC6333900, “Discovery of peptide ligands targeting a specific ubiquitin-like domain–binding site in the deubiquitinase USP11” (The Journal of Biological Chemistry, 2018).
No end group written: not given here.

The substances below were run against T1, full-length USP11 (FL-USP11) (Homo sapiens, UniProt P51784) (assay: Isothermal titration calorimetry, full-length USP11). Conditions: ITC, 30 μM protein in PBS, 25 °C, one site binding model; n=1; read-out: dissociation constant.
T1 construct: FYLIR peptide (AEGEFYKLKIRTPR) titrated into full-length USP11 (FL-USP11); His tag (inferred from nickel-chelate purification and the pColdI vector); made in house; host or cells: E. coli BL21-CodonPlus (pColdI), grown 72 h at 10 °C
T1 sequence (P51784 44-963 limits assumed): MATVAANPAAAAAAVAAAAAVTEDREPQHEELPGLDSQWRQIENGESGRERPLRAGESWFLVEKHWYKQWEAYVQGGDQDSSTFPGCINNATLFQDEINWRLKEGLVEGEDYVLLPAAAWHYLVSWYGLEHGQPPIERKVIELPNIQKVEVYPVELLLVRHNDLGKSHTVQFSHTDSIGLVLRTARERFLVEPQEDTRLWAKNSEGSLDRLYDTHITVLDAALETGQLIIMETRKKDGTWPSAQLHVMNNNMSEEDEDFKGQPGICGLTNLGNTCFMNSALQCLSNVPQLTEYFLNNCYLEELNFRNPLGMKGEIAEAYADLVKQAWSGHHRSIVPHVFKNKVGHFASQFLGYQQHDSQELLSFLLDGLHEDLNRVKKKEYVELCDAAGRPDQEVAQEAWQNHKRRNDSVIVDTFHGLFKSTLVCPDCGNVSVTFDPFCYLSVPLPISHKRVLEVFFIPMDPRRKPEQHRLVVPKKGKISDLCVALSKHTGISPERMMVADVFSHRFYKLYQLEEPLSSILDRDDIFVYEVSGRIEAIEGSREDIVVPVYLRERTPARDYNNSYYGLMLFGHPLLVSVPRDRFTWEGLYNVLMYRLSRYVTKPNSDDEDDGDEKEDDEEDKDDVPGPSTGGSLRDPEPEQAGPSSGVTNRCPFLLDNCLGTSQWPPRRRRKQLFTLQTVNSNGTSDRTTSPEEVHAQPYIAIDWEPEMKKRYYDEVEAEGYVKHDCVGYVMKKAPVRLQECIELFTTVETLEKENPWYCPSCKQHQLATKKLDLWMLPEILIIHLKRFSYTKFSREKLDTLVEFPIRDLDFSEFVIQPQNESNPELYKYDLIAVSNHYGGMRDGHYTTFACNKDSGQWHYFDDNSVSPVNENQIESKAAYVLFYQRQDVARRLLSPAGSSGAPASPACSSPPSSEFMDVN
Method: (§1) ITC data were measured on a MicroCal VP-ITC or a PEAQ ITC instrument to obtain the binding parameters for peptide ligand–USP11_DU interactions. The sample cell contained 30 μM protein in PBS buffer. Each peptide (at a concentration of 300 or 600 μM) was titrated into the sample cell in 8-μl (VP-ITC) or 2-μl (PEAK ITC) injections at a temperature of 25 °C. Spacing was typically 180 s, and a stirring speed of 300 rpm was used. The data were analyzed using NITPIC ([52]), SEDPHAT ([53]), and GUSSI software. ITC experiments were repeated at least twice independently apart from the USP15_DU, USP4_DU, and the FL-USP11 titrations with FYLIR peptide, which were conducted once.
AEGEFYKLKIRTPR-NH2 [AEGEFYKLKIRTPR] gave a Kd of about 12.5 µM.

These substances were tested on Panc1 cells (assay: Cell viability (Presto Blue assay), Panc1). Conditions: Panc1, up to 10 μM, 24 h, Presto Blue, n=4 biological repeats (Fig. S6).
Type: cell-based, human
Method: Cells were plated in 96-well plates (2.5 × 10^4 cells/well) and treated with GET-FYLIR (0–50 μM) for 24 h. Cells were also treated with GET-Scrambled as a control. After treatment, cells were washed with PBS and then incubated for 15 min at 37 °C with a 100-μl Presto Blue solution (10% Presto Blue, Invitrogen in Hanks' balanced salt solution, Sigma). Change in the fluorescence was measured using a plate reader with the excitation/emission wavelengths set at 560/590 nm (Infinite® 200 PRO, TECAN), with untreated cells used as a control. All data sets were combined for the statistical analysis. A Sidak's multiple comparisons test was applied. N refers to the number of biological replicates.
In the case of APKFEIRRGTYKLE [GET-Scrambled], the cell viability is reported as “no significant effect”.

The substances below were run on USP11_DU (USP11 N-terminal DUSP–UBL domains) (assay: Next-generation phage display enrichment (two-proportion Z test, round 3 of panning)). Conditions: enrichment on USP11_DU vs unrelated His-tagged control protein (flagellin fragment), after three rounds of panning, gpVIII phage-displayed nonapeptide.
Type: binding, human
Excerpt: An NGPD approach was applied to the identification of USP11 ligands as schematically depicted in Fig. 1B. A randomized linear peptide library fused to the gpVIII protein was used to isolate peptides that interact with the USP11 N-terminal DU domains (DUSP and UBL domains in tandem; USP11_DU; Fig. 1A). After three biopanning rounds, phage ssDNA was extracted and purified, and peptide sequences were amplified and deep-sequenced. […] A graphical representation of the residue frequency within the motifs as computed by the Multiple EM for Motif Elicitation (MEME) algorithm ([33]) is shown in Fig. 1C. The thermodynamic binding parameters of synthetic peptides representative of both motifs, including the N-terminal phage protein sequence (AEGEF), AEGEFYKLKIRTPQ (referred to as FYLIR peptide) and AEGEFLELLKASRW (referred to as LXLL peptide), were determined by isothermal titration calorimetry (ITC). Peptides harboring either motif bound USP11_DU with dissociation constants of about 10 μM (8.86 ± 1.13 μM for AEGEFYKLKIRTPQ and 6.92 ± 2.25 μM for AEGEFLELLKASRW; Fig. 1D).
The peptide phage display library used for biopanning experiments (kindly provided by Professor Franco Felici, University of Molise, Italy; designated PC89VIII) is based on the PC89 phagemid vector ([50]) with a nonapeptide inserted at the N terminus of the phage major coat protein pVIII and a reported diversity of ∼10^7. The library was transformed into Escherichia coli TG1 supE thi-1 Δ(lac-proAB) Δ(mcrB-hsdSM)5(rK-mK) [F′traD36 proAB lacIqZΔM15], which was the strain used for all manipulations and phage rescue. Libraries were grown to mid-log phase (OD600 ∼0.6), superinfected with M13KO7 helper phage (Pharmacia LKB), and incubated overnight at 30 °C (250 rpm) to produce phage particles. Phage was harvested, and PEG was precipitated only for the first panning round. For all subsequent selection rounds (three in total), supernatant phage was used directly. Biopanning was carried out once, as described previously ([51]), and proteins were immobilized on cobalt beads (Dynabeads) (solution phase panning). A total of 100 μg of USP11_DU was immobilized for each round. In parallel, the phage isolated at each round against USP11_DU was also bound against an unrelated His-tagged control protein under the same conditions. This control protein was a fragment of flagellin, a virulence factor from E. coli O157:H7, amino acid residues 164–495, and the protein was used as it is unrelated to the target proteins and carried a C-terminal His tag. Bound phage were washed 10–20 times with PBS (10 mM phosphate buffer, pH 7.2–7.4, with 150 mM NaCl) plus 0.1% (v/v) Tween (PBST) and then PBS. Bound phage were eluted from the beads with 100 mM triethylamine and neutralized in 1 M Tris, pH 7.4. Half of the eluted phage was used for infection of TG1 cells, which were plated and used to make glycerol stocks.
The ssDNA of eluted phage for round 3 of selection against the USP11_DU target and the control protein was extracted and purified using the QIAprep Spin M13 kit. Subsequently, phage ssDNA was precipitated with ethanol and stored as a dry pellet to be used as a PCR template. For the amplification of the unknown peptide sequences, a two-step PCR strategy was followed, as described previously ([32]). The strategy produced an amplicon of ∼330 bp, and each sample contained a unique barcoded sequence. Each sample's DNA concentration was determined by the Agilent 2100 Bioanalyzer using the DNA 1000 kit. Based on the concentration readings for the peak of interest, samples were pooled in equal amounts, purified by the Agencourt AMPure XP kit, and run on a 2% (w/v) agarose gel. The band of ∼330 bp was excised from the gel and purified using the NucleoSpin Gel and PCR Clean-up kit. Finally, the concentration and size of the pooled DNA were measured on a Bioanalyzer. NGPD was carried out once for each round of panning. […]
CKLKIRTPQ was tested, and the Z score was 5.6. HKLKIRTPQ was tested, and the Z score was 5.5. With LALIKRQPL the Z score was 18.1. For LALLMRQRP, the Z score was 19.0. LAMLTRGRP was tested, and the Z score was 3.0. For LELARRSPV, the Z score was 4.1. With LELLEASRW the Z score was 5.0. With LELLKALRW the Z score was 3.0. For LELLKAPRW, the Z score was 3.6. In the case of LELLKASRR, the Z score is reported as 4.8. With LELLKASRW the Z score was 108.7. With LELLKVSRW the Z score was 3.0. LELLRASRW gave a Z score of 4.6. With LELPKASRW the Z score was 4.5. Work on LELVCRSPV yielded a Z score of 2.8. Substance LELVHRSPV has a Z score of 4.1. For LELVRCSPV, the Z score was 3.2. With LELVRHSPV the Z score was 3.0. LELVRRSPA showed a Z score of 3.7. Work on LELVRRSPV yielded a Z score of 89.0. Work on LELVRRSSV yielded a Z score of 3.0. Substance LEPVRRSPV has a Z score of 4.1. Substance LESLKASRW has a Z score of 4.9. For LGLLKASRW, the Z score was 4.4. In the case of LQLLALSRA, the Z score is reported as 3.6. LQLLALSRT showed a Z score of 70.9. With LQLLAPSRT the Z score was 3.0. Work on LQLPALSRT yielded a Z score of 4.1. LRLLALSRT gave a Z score of 4.4. Substance NKLKIRTPQ has a Z score of 2.8. In the case of PELLKASRW, the Z score is reported as 3.6. In the case of PQLLALSRT, the Z score is reported as 3.9. Substance YELKIRTPQ has a Z score of 4.6. With YKLEIRTPQ the Z score was 5.6. Work on YKLKIQTPQ yielded a Z score of 4.0. Substance YKLKIRAPQ has a Z score of 7.9. With YKLKIRIPQ the Z score was 4.4. In the case of YKLKIRTLQ, the Z score is reported as 3.7. Work on YKLKIRTPL yielded a Z score of 3.2. YKLKIRTPQ gave a Z score of 168.4. YKLKIRTPR gave a Z score of 7.1. For YKLKIRTSQ, the Z score was 3.6. YKLKTRTPQ showed a Z score of 4.5. With YKLKVRTPQ the Z score was 5.7. With YKLRIRTPQ the Z score was 5.8. For YKPKIRTPQ, the Z score was 6.6. In the case of YRLKIRTPQ, the Z score is reported as 5.5.

These substances were tested on USP11_DU^L208F/S242R (assay: Isothermal titration calorimetry, USP11_DU double mutant). Conditions: 30 μM protein in PBS, peptide 300 or 600 μM, 25 °C, pocket-deficient double mutant, repeated at least twice.
Type: binding, human
Method: as §1
In the case of “AEGEFLRLLNFTKP [peptide harboring motif 2 (LXLL)]”, the “binding by ITC” value is reported as “abolished”.

Each substance was assayed on Panc1 cells (assay: Cell uptake (flow cytometry), Panc1). Conditions: 1 μM and 5 μM, 1 or 24 h, flow cytometry.
Type: cell-based, human
Method: Cells treated with GET-FYLIR or GET-Scrambled were analyzed on an Astrios cell sorter using a 488-nm […] laser (40,000 cells; gated on live cells by forward/side scatter). Gmean was used as the average cell intensity. All data sets were combined for the statistical analysis. A Sidak's multiple comparisons test was applied. N refers to the number of biological replicates.
With APKFEIRRGTYKLE [GET-Scrambled] the “uptake profile, NIH3T3 versus Panc1” value was “no difference in the uptake profile between NIH3T3 and Panc1 cells”.

Same assay, conditions: NIH3T3 and Panc1, 1 and 5 μM, flow cytometry
In the case of APKFEIRRGTYKLE [GET-Scrambled], the cellular delivery is reported as “efficiently delivered”.
